# Measured values reported in article PMC11459619, “Evaluating the amoeba thioredoxin reductase selenoprotein as potential drug target for treatment of Acanthamoeba infections” (International Journal for Parasitology: Drugs and Drug …, 2024).
# Where two headings read alike, the source gives them in different places.
# T1: AcTrxR-L (Acanthamoeba castellanii, UniProt L8HG59)
# T1 construct: gene ACA1_153040; recombinant selenoprotein from E. coli C321.ΔA (pABC2a, UAG as Sec codon, SECIS element); N-terminal His-SUMO removed with ULP1; homodimer with one FAD per subunit
# T1 sequence (L8HG59 1-526): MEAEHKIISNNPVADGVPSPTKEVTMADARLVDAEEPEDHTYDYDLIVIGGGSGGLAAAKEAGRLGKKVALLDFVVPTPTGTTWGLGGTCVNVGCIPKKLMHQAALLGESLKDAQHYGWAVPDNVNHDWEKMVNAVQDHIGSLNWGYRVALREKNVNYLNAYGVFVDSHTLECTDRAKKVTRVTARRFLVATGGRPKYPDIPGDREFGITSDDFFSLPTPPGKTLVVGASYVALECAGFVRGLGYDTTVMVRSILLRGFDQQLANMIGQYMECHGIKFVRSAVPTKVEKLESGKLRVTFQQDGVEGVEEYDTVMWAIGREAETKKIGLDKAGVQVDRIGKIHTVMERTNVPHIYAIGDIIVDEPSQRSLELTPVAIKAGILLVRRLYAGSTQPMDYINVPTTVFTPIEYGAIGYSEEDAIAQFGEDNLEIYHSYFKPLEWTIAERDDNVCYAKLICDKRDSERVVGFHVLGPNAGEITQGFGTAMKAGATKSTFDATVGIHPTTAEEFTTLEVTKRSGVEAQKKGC
# B1: AcTrxR-L (Acanthamoeba castellanii str. Neff) (protein)
# chain: T1 sequence (L8HG59 1-526)
# Key:
# [1] = tested on: Acanthamoeba strain Neff trophozoites; experiment: In vitro amoebicide assay, trypan blue direct counting; format: cell-based, Acanthamoeba castellanii
# Protocol: Acanthamoeba castellanii strain Neff (ATCC® 30010™) genotype T4 was used for all experiments. The amoebae were grown in peptone yeast extract-glucose medium (PYG) in 75 cm^2 tissue culture flasks at 25 °C with weekly medium changes as described previously ([Köhsler et al., 2022]).
# The amoebicidal activity was assessed by direct counting, using trypan blue ([Martín-Pérez et al., 2021]) and assayed in sterile 96-well microplates. Diverse drug concentrations (0–20 μM) were prepared via serial dilutions in DMSO, keeping total DMSO at 5% in the control well and in the drug solution wells ranging 5–3%. Amoebae from log-phase cultures (5 × 10^4 trophozoites/well) were inoculated into the microplates and the trophozoites were resuspended in PYG medium. Drug assays contained 100 μL of trophozoites solution, 90 μL of PYG media and 10 μL of the drug solution per well. The growth control (positive control) included 100 μL of trophozoites solution, 90 μL of PYG medium and 10 μL of DMSO. Each drug concentration and control were investigated in triplicates and each experiment was repeated in two independent setups. The plates were incubated at 25 °C during 4, 24, 48 and 72 h. Samples were placed in a Bürker-Türk counting chamber. The IC50 was calculated using GraphPad Prism, as explained previously.
# [2] = tested on: AcTrxR-L; experiment: Inhibition of AcTrxR-L, direct DTNB reduction assay; format: biochemical, Acanthamoeba castellanii; settings: for IC50: DTNB reduction; for Reversibility of AcTrxR-L inhibition after desalting: removal of compound from solution by desalting
# Protocol: (§1) The reaction consisted of incubating 50 nM AcTrxR-L with 0.5–10 μM of auranofin, TRi-1 or TRi- 2, or 1% v/v DMSO, 250 μM NADPH and 0.01 mg/ml BSA in TE buffer for 30 min ([Fata et al., 2022]). Then, the reaction was diluted 5-fold and 200 μl was desalted using Zeba™ Spin Desalting Columns and Plates, 40K MWCO (Thermo Scientific, 87767), whereupon 100 μl of the reactions, either desalted or not desalted, were transferred to each well of a 96 well plate. Subsequently, 250 μM NADPH and 1 mM DTNB were added to each well. The TNB^− formation at A412 nm was followed by a spectrophotometer and experiments were carried out in duplicates. The IC50 values were determined based on the nonlinear regression (curve fit), dose-response-inhibitor equation, log (inhibitor) vs. normalized response (variable slope) using GraphPad Prism.
# [3] = tested on: human corneal epithelial cells (HCECs); experiment: Cytotoxicity test on human corneal epithelial cells (CellTiter 96 AQueous One); format: cell-based; settings: HCEC; for TD50 24 h: 24 h of treatment; for TD50 48 h: 48 h of treatment; for TD50 72 h: 72 h of treatment
# Protocol: Cytotoxicity of the compounds towards human corneal epithelial cells (HCECs) (Innoprot, ref. P10871) was determined ([Loufouma Mbouaka et al., 2023]) in 96-well microplates. The HCECs (1 × 10^4 cells/well) were grown in 100 μL of corneal epithelial cell medium (CEpiCM) (Innoprot, ref. P60131) supplemented with 1% of corneal epithelial cell growth supplement (CEpiCGS), 2% of fetal bovine serum (FBS) and 1% antibiotic mix: 10,000 U penicillin, 10 mg streptomycin and 25 μg amphotericin B per milliliter. After overnight incubation, cytotoxicity was evaluated adding 20 μL of CellTiter 96® AQueous One Solution Reagent (Promega, Madison, WI, USA). After 1 h of incubation at 37 °C, the absorbance at 490 nm was read using a spectrophotometer (Tecan, Spark 10M, Switzerland).
# The TD50 values were calculated using the same method as the IC50 values with GraphPad Prism. Moreover, the therapeutic index was determined as the ratio of TD50 to IC50 ([Muller and Milton, 2012]).
# [4] = tested on: HCEC; set-up: method as in Martín-Pérez et al., 2019; settings: ref Martín-Pérez et al., 2019; read-out: IC50 against HCEC; cited from earlier work
# [5] = target: T1, AcTrxR-L; experiment: DTNB reduction at 412 nm (250 μM NADPH, 1 mM DTNB, TE buffer) after preincubation of 50 nM AcTrxR-L with inhibitor, 250 μM NADPH and 0.01 mg/ml BSA for 30 min (10 min in results), diluted 5-fold and desalted to remove free inhibitor.; format: biochemical; settings: n = 2
# Protocol: as §1, with “Then,” for “The reaction consisted of incubating 50 nM AcTrxR-L with 0.5–10 μM of auranofin, TRi-1 or TRi- 2, or 1% v/v DMSO, 250 μM NADPH and 0.01 mg/ml BSA in TE buffer for 30 min ([Fata et al., 2022]). Then,”
# [6] = target: T1, AcTrxR-L; experiment: DTNB reduction at 412 nm (250 μM NADPH, 1 mM DTNB, TE buffer) after preincubation of 50 nM AcTrxR-L with inhibitor, 250 μM NADPH and 0.01 mg/ml BSA for 30 min (10 min in results), diluted 5-fold, without desalting.; format: biochemical; settings: n = 2; read-out: IC50 (μM), Not desalted
# Protocol: as §1, with “Then,” for “The reaction consisted of incubating 50 nM AcTrxR-L with 0.5–10 μM of auranofin, TRi-1 or TRi- 2, or 1% v/v DMSO, 250 μM NADPH and 0.01 mg/ml BSA in TE buffer for 30 min ([Fata et al., 2022]). Then,”
# [7] = tested on: AcTrxR-S; set-up: method as in Leitsch et al., 2021; settings: ref Leitsch et al., 2021; read-out: IC50 enzymatic activity of AcTrxR-S; cited from earlier work
# [8] = tested on: different strains of Acanthamoeba; settings: ref Feng et al. (2020); read-out: IC50 against Acanthamoeba trophozoites; cited from earlier work
# [9] = tested on: Schistosoma mansoni; set-up: method as in Kuntz et al., 2007; settings: treatment of infected mice; ref Kuntz et al., 2007; cited from earlier work
# [10] = tested on: AcTrxR-L; experiment: Direct DTNB reduction assay; format: biochemical, Acanthamoeba castellanii
# Protocol: Unless stated otherwise, all enzyme assays for AcTrxR-L were based upon well-established selenoprotein TrxR assays, as outlined earlier ([Arnér, 2018]). Kinetic parameters of AcTrxR-L were determined with different biochemical assays in triplicates in cuvettes as previously described ([Fata et al., 2022]). First, the specific activity of AcTrxR-L was calculated from its NADPH-dependent DTNB reduction. The reaction mixture contained 10 nM AcTrxR-L, 250 μM NADPH, and 2.5 mM DTNB in TE buffer (50 mM Tris and 2 mM EDTA, pH 7.5), and the reduction of DTNB was monitored by measuring the formation of the TNB^− anion at A412 nm on a spectrophotometer. Each DTNB is reduced into 2 molecules of TNB^− with extinction coefficient of 13,600 M^−1cm^−1 at 412 nm and the specific activity of the enzyme was calculated as Unit per mg (U/mg), with 1 U (μmol/min) defined as conversion of 1 μmol of DTNB substrate per minute.
# Apparent Michaelis-Menten parameters were in all cases calculated based on the nonlinear fit of the velocity vs substrate concentration curves to the Michaelis-Menten equation by using GraphPad Prism.
# [11] = substrate: O=C(O)c1cc(SSc2ccc([N+](=O)[O-])c(C(=O)O)c2)ccc1[N+](=O)[O-]; experiment: purified protein, by the assay type; settings: pH 7.5
# [12] = 48 h of treatment, read-out: IC50 48 h
# [13] = 72 h of treatment, read-out: IC50 72 h
# [14] = after removal of the inhibitors by desalting, read-out: IC50 Desalted
# [15] = in presence of the inhibitors, 50 nM AcTrxR-L, read-out: IC50 Not desalted
molecule,measurement,setting,value
COc1ccc([N+](=O)[O-])c(S(=O)(=O)c2ccc(Cl)cc2)n1 [TRi-1],IC50,"[1]; 24 h of treatment, read-out: IC50 24 h",17700 ± 1640 nM
same,IC50,[1]; [12],7650 ± 1710 nM
same,IC50,[1]; [13],4290 ± 862 nM
same,IC50,[2]; [14],370 ± 110 nM
same,IC50,[2]; [15],360 ± 70 nM
same,Reversibility of AcTrxR-L inhibition after desalting,[2],irreversibly inhibit the enzyme
same,TD50 24 h,[3],8.84 ± 0.044 µM
same,TD50 48 h,[3],8.40 ± 0.168 µM
same,TD50 72 h,[3],8.40 ± 0.003 µM
[H]/N=C(\N/C(=N/[H])NCCCCCCNC(=N)NC(=N)Nc1ccc(Cl)cc1)Nc1ccc(Cl)cc1 [chlorhexidine],IC50,[4],1580 nM
"CC[PH](CC)(CC)[Au][S][C@@H]1O[C@H](COC(C)=O)[C@@H](OC(C)=O)[C@H](OC(C)=O)[C@H]1OC(C)=O [Auranofin, auranofin (Ridaura), gold-based compound]",IC50,[5],0.32 ± 0.55 µM
same,IC50,[6],0.32 ± 0.39 µM
"CC(=O)OC[C@H]1O[C@@H]([S-])[C@H](OC(C)=O)[C@@H](OC(C)=O)[C@@H]1OC(C)=O.CCP(CC)CC.[Au+] [Auranofin, auranofin]",IC50,[7],216 nM
same,IC50,[1]; [12],21100 ± 11000 nM
same,IC50,[1]; [13],5640 ± 1350 nM
same,IC50,[8],5790 nM
same,Reduction of worm burden,[9],60%
same,IC50,[2]; [14],320 ± 550 nM
same,IC50,[2]; [15],320 ± 390 nM
same,Reversibility of AcTrxR-L inhibition after desalting,[2],irreversibly inhibit the enzyme
same,TD50 24 h,[3],2.79 ± 0.076 µM
same,TD50 48 h,[3],1.18 ± 0.103 µM
same,TD50 72 h,[3],0.97 ± 0.045 µM
thioredoxin reductase inhibitor -2 [TRi-2],IC50,[5],> 10 µM
same,IC50,[6],> 10 µM
O=C(O)c1cc(SSc2ccc([N+](=O)[O-])c(C(=O)O)c2)ccc1[N+](=O)[O-] [DTNB],Km,[10],384 ± 63.7 µM
same,Vmax,[10],238.1 ± 19.01 µmol/min/mg
same,kcat,[10],79.37 s⁻¹
"COc1ccc([N+](=O)[O-])c(S(=O)(=O)c2ccc(Cl)cc2)n1 [TRi-1, thioredoxin reductase inhibitor -1]",IC50,[5],0.37 ± 0.11 µM
same,IC50,[6],0.36 ± 0.07 µM
B1,Km,[11],384.1 ± 63.74 µM
same,Vmax,[11],238 µmol/min/mg
same,kcat,[11],79.4 s⁻¹
same,kcat/Km,[11],200000 M⁻¹ s⁻¹
